In patent US10815238B2, “Antimicrobial compounds and methods of making and using the same” (BIOVERSYS AG, priority 2013, dated 2020) one finds MIC data, which are given here for 37 molecules.

The structures appear in SMILES notation.

A word on the MIC: it is the smallest concentration in the dilution series that meets the test's criterion for growth inhibition.

For assay [1], the system named is Eschericia coli (E. coli) strain ATCC25922. Briefly: Standard microdilution assay, MIC against E. coli ATCC25922. The class given is cell-based. The conditions noted are these: Escherichia coli; E. coli strain ATCC25922, standard microdilution assay; cutoff 16 micrograms/mL; read-out: MIC E. Coli. The essentials:
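MIC determined by broth microdilution following CLSI protocols, with reference strains run in parallel for quality control. Activity scored +/− at a cutoff of 16 micrograms/mL.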

Assay [2] relates to Staphylococcus aureus (S. aureus) 11540 strain. As to the kind of experiment: Standard microdilution assay, MIC against S. aureus 11540. The class given is cell-based. The conditions noted are these: S. aureus 11540 strain, standard microdilution assay, cutoff 16 micrograms/mL, read-out: MIC S. aureus. As for the experimental part: The in vitro activity of the compounds of the present invention can be determined. Antimicrobial testing is typically performed to determine the minimum inhibitory concentration (MIC). Minimum inhibitory concentrations (MICs) are determined by the microdilution method in a final volume of 100 μl according to protocols outlined by The Clinical and Laboratory Standards Institute (CLSI). Performance standards for reference strains are assessed within the same experimental design to maintain quality control. See, for example, Clinical Laboratory Standards Institute: Methods for dilution antimicrobial susceptibility tests for bacteria that grow aerobically M7-A8. Approved Standard-Eighth Edition. Wayne, Pa.: CLSI; December 2008; and Clinical Laboratory Standards Institute: Performance Standards for Antimicrobial Susceptibility Testing M100-S20; Approved Standard-Twentieth Edition. Wayne, Pa.: CLSI; June 2010.
The compounds of the present invention were tested for antimicrobial activity. The Compounds 1-582 were run against Eschericia coli (E. coli) strain ATCC25922 and Compounds 320-582 were run against Staphylococcus aureus (S. aureus) 11540 strain using a standard microdilution assay to determine minimum inhibitory concentrations (MICs). […] It will be recognized by one skilled in the art that the compounds can be assessed against other bacterial organisms and that the presentation of data for activity against Eschericia coli and Staphylococcus aureus are illustrative and in no way is intended to limit the scope of the present invention. The compounds of the present invention can be assayed against a range of other microorganisms depending upon the performance activity desired to be gathered. Furthermore, the “+” and “−” representation and the selection of a cutoff value of 16 micrograms/mL is also illustrative and in no way is intended to limit the scope of the present invention.

As for `COC[C@@H](CCNC(=N)N)NCc1ccc(-n2cc3cc(-c4cc(CCC[C@H](C)N)cc(OC(F)(F)F)c4F)[nH]c3nc2=O)cc1` [Compound 351], the minimum inhibitory concentration (MIC) in assay [1] and in assay [2] was under 16 mg/L in each case.
Take `C[C@H](N)CCCc1cc(OC(F)(F)F)c(F)c(-c2cc3cn(-c4ccc([C@H]5CC[C@H](CCNC(=N)N)N5)cc4)c(=O)nc3[nH]2)c1` [Compound 352]: the minimum inhibitory concentration (MIC) in assay [1] and in assay [2] was under 16 mg/L throughout.
Turning to `C[C@H](N)CCCc1cc(Cl)c(F)c(-c2cc3cn(-c4ccc([C@@H]5COC[C@@H](CCNC(=N)N)N5)cc4)c(=O)nc3[nH]2)c1` [Compound 353], the minimal inhibitory concentration (MIC) in assay [1] and in assay [2] was under 16 mg/L each time.
For `C[C@H](N)CCCc1cc(Cl)c(F)c(-c2cc3cn(-c4ccc([C@@H]5COC[C@@H](CCN)N5)cc4)c(=O)nc3[nH]2)c1` [Compound 354], the minimum inhibitory concentration (MIC) in assay [1] and in assay [2] was under 16 mg/L in each case.
In the case of `COC[C@H](CCNC(=N)N)N[C@@H](C)c1ccc(-n2cc3cc(-c4cc(CCC[C@H](C)N)cc(Cl)c4F)[nH]c3nc2=O)cc1` [Compound 355], the MIC in assay [1] and in assay [2] was under 16 mg/L in each case.
As to `COC(=O)[C@H](CCNC(=N)N)N[C@@H](C)c1ccc(-n2cc3cc(-c4cc(CCC[C@H](C)N)cc(Cl)c4F)[nH]c3nc2=O)cc1` [Compound 356], the MIC in assay [1] and in assay [2] was under 16 mg/L in each case.
`C[C@H](N)CCCc1cc(OC(F)(F)F)c(F)c(-c2cc3cn(-c4ccc([C@@H]5COC[C@H](CCNC(=N)N)N5)cc4)c(=O)nc3[nH]2)c1` [Compound 357]: the minimal inhibitory concentration (MIC) in assay [1] and in assay [2] was under 16 mg/L throughout.
Regarding `C[C@H](N)CCCc1cc(OC(F)(F)F)c(F)c(-c2cc3cn(-c4ccc([C@@H]5COC[C@H](CCN)N5)cc4)c(=O)nc3[nH]2)c1` [Compound 358], the MIC in assay [1] and in assay [2] was under 16 mg/L each time.
Regarding `C[C@H](N)CCCc1cc(Cl)c(F)c(-c2cc3cn(-c4ccc(CN[C@@H](C)C[C@@H](CCO)NC(=N)N)cc4)c(=O)nc3[nH]2)c1` [Compound 359], the minimal inhibitory concentration (MIC) in assay [1] and in assay [2] was under 16 mg/L throughout.
`C[C@H](N)CCCc1cc(Cl)c(F)c(-c2cc3cn(-c4ccc(CN[C@@H](C)C[C@H](CCO)NC(=N)N)cc4)c(=O)nc3[nH]2)c1` [Compound 360]: the MIC in assay [1] and in assay [2] was under 16 mg/L throughout.
As to `C[C@H](N)CCCc1cc(OC(F)(F)F)c(F)c(-c2cc3cn(-c4ccc(CN[C@@H](C)C[C@H](CCO)NC(=N)N)cc4)c(=O)nc3[nH]2)c1` [Compound 361], the minimum inhibitory concentration (MIC) in assay [1] and in assay [2] was under 16 mg/L each time.
For `COC(=O)[C@H](CCNC(=N)N)N[C@@H](C)c1ccc(-n2cc3cc(-c4cc(CCC[C@H](C)N)cc(OC(F)(F)F)c4F)[nH]c3nc2=O)cc1` [Compound 362], the MIC in assay [1] and in assay [2] was under 16 mg/L each time.
For the molecule `C[C@H](N)CCCc1cc(Cl)c(F)c(-c2cc3cn(-c4ccc([C@H](C)N[C@@H](CCNC(=N)N)C(N)=O)cc4)c(=O)nc3[nH]2)c1` [Compound 363], the MIC in assay [1] and in assay [2] was under 16 mg/L each time.
Regarding `C[C@H](N)CCCc1cc(OC(F)(F)F)c(F)c(-c2cc3cn(-c4ccc([C@H](C)N[C@@H](CCNC(=N)N)C(=O)O)cc4)c(=O)nc3[nH]2)c1` [Compound 364], the MIC in assay [1] and in assay [2] was over 16 mg/L each time.
With `C[C@H](N)CCCc1cc(Cl)c(F)c(-c2cc3cn(-c4ccc([C@H](C)NCC[C@@H](CSc5nccs5)NC(=N)N)cc4)c(=O)nc3[nH]2)c1` [Compound 365], the MIC in assay [1] and in assay [2] was under 16 mg/L each time.
Turning to `C[C@H](N)CCCc1cc(OC(F)(F)F)c(F)c(-c2cc3cn(-c4ccc([C@H](C)N[C@H](CO)CCNC(=N)N)cc4)c(=O)nc3[nH]2)c1` [Compound 366], the MIC in assay [1] and in assay [2] was under 16 mg/L each time.
In the case of `C[C@H](N)CCCc1cc(Cl)c(F)c(-c2cc3cn(-c4ccc([C@H](C)N[C@H](CO)CCNC(=N)N)cc4)c(=O)nc3[nH]2)c1` [Compound 367], the minimum inhibitory concentration (MIC) in assay [1] and in assay [2] was under 16 mg/L each time.
Turning to `C[C@H](N)CCCc1cc(Cl)c(F)c(-c2cc3cn(-c4ccc([C@H](C)NCC[C@H](CNC(=O)CN)NC(=N)N)cc4)c(=O)nc3[nH]2)c1` [Compound 368], the MIC in assay [1] and in assay [2] was under 16 mg/L each time.
In the case of `C[C@H](N)CCCc1cc(OC(F)(F)F)c(F)c(-c2cc3cn(-c4ccc([C@H](C)NCC[C@H](CNC(=O)CN)NC(=N)N)cc4)c(=O)nc3[nH]2)c1` [Compound 369], the minimum inhibitory concentration (MIC) in assay [1] and in assay [2] was under 16 mg/L each time.
In the case of `C[C@@H](N)CCCc1cc(Cl)c(F)c(-c2cc3cn(-c4ccc([C@@H](C)NCCCNC(=N)N)cc4)c(=O)nc3[nH]2)c1` [Compound 370], the MIC in assay [1] and in assay [2] was under 16 mg/L throughout.
As to `C=C[C@H](C[C@@H](C)NCc1ccc(-n2cc3cc(-c4cc(CCC[C@H](C)N)cc(Cl)c4F)[nH]c3nc2=O)cc1)NC(=N)N` [Compound 371], the minimal inhibitory concentration (MIC) in assay [1] and in assay [2] was under 16 mg/L in each case.
Turning to `C=C[C@H](C[C@@H](C)NCc1ccc(-n2cc3cc(-c4cc(CCC[C@H](C)N)cc(OC(F)(F)F)c4F)[nH]c3nc2=O)cc1)NC(=N)N` [Compound 372], the minimal inhibitory concentration (MIC) in assay [1] and in assay [2] was under 16 mg/L throughout.
Regarding `C=C[C@@H](C[C@@H](C)NCc1ccc(-n2cc3cc(-c4cc(CCC[C@H](C)N)cc(Cl)c4F)[nH]c3nc2=O)cc1)NC(=N)N` [Compound 373], the minimal inhibitory concentration (MIC) in assay [1] and in assay [2] was under 16 mg/L each time.
Regarding `C=C[C@@H]1COC[C@H](c2ccc(-n3cc4cc(-c5cc(CCC[C@H](C)N)cc(Cl)c5F)[nH]c4nc3=O)cc2)N1` [Compound 374], the minimum inhibitory concentration (MIC) in assay [1] and in assay [2] was over 16 mg/L throughout.
With `C[C@H](N)CCCc1cc(Cl)c(F)c(-c2cc3cn(-c4ccc(CNCC[C@@H](CN)NC(=N)N)cc4)c(=O)nc3[nH]2)c1` [Compound 375], the MIC in assay [1] and in assay [2] was under 16 mg/L in each case.
Consider `C[C@H](N)CCCc1cc(OC(F)(F)F)c(F)c(-c2cc3cn(-c4ccc(CNCC[C@@H](CN)NC(=N)N)cc4)c(=O)nc3[nH]2)c1` [Compound 376], for which the MIC in assay [1] and in assay [2] was under 16 mg/L each time.
Turning to `N=C(N)NCC[C@H](CO)NCc1ccc(-n2cc3cc(-c4cc(CCC[C@@H](N)CO)cc(Cl)c4F)[nH]c3nc2=O)cc1` [Compound 377], the MIC in assay [1] and in assay [2] was under 16 mg/L each time.
For the molecule `COC[C@@H](CCNC(=N)N)NCc1ccc(-n2cc3cc(-c4cc(CCC[C@@H](N)CO)cc(Cl)c4F)[nH]c3nc2=O)cc1` [Compound 378], the MIC in assay [1] and in assay [2] was under 16 mg/L in each case.
Turning to `C[C@H](N)CCCc1cc(Cl)c(F)c(-c2cc3cn(-c4ccc(CN[C@@H](CN)CCNC(=N)N)cc4)c(=O)nc3[nH]2)c1` [Compound 379], the MIC in assay [1] and in assay [2] was under 16 mg/L in each case.
For `C[C@H](N)CCCc1cc(OC(F)(F)F)c(F)c(-c2cc3cn(-c4ccc(CN[C@@H](CN)CCNC(=N)N)cc4)c(=O)nc3[nH]2)c1` [Compound 380], the MIC in assay [1] and in assay [2] was under 16 mg/L throughout.
With `C[C@H](N)CCCc1cc(Cl)c(F)c(-c2cc3cn(-c4ccc(CN[C@H](C)C[C@@H](CCO)NC(=N)N)cc4)c(=O)nc3[nH]2)c1` [Compound 381], the minimum inhibitory concentration (MIC) in assay [1] and in assay [2] was under 16 mg/L throughout.
In the case of `C=C[C@H](CCNC(=N)N)N[C@@H](C)c1ccc(-n2cc3cc(-c4cc(CCC[C@H](C)N)cc(Cl)c4F)[nH]c3nc2=O)cc1` [Compound 382], the minimum inhibitory concentration (MIC) in assay [1] and in assay [2] was under 16 mg/L throughout.
With `C=C[C@H](CCNC(=N)N)N[C@@H](C)c1ccc(-n2cc3cc(-c4cc(CCC[C@H](C)N)cc(OC(F)(F)F)c4F)[nH]c3nc2=O)cc1` [Compound 383], the minimum inhibitory concentration (MIC) in assay [1] and in assay [2] was under 16 mg/L throughout.
Turning to `C[C@H](N)CCCc1cc(Cl)c(F)c(-c2cc3cn(-c4ccc([C@@H]5COC[C@H](CCNC(=N)N)N5)cc4)c(=O)nc3[nH]2)c1` [Compound 384], the MIC in assay [1] and in assay [2] was under 16 mg/L in each case.
With `C[C@H](N)CCCc1cc(Cl)c(F)c(-c2cc3cn(-c4ccc([C@@H]5COC[C@H](CCN)N5)cc4)c(=O)nc3[nH]2)c1` [Compound 385], the minimal inhibitory concentration (MIC) in assay [1] and in assay [2] was under 16 mg/L in each case.
In the case of `C[C@H](N)CCCc1cc(Cl)c(F)c(-c2cc3cn(-c4ccc([C@H](C)NCC[C@@H]5COC(=O)N5)cc4)c(=O)nc3[nH]2)c1` [Compound 386], the MIC in assay [1] and in assay [2] was under 16 mg/L throughout.
As to `C=C[C@@H](CCNC(=N)N)NCc1ccc(-n2cc3cc(-c4cc(CCC[C@H](C)N)cc(Cl)c4F)[nH]c3nc2=O)cc1` [Compound 387], the MIC in assay [1] and in assay [2] was under 16 mg/L in each case.
